ChEMBL document CHEMBL1128866, “Isophthalic acid derivatives: amino acid surrogates for the inhibition of HIV-1 protease” (Bioorg Med Chem Lett, 1995)
pIC50: −log10 of the molar value.

Experiments:
[1] = Peak oral plasma concentration was determined in rats by oral administration; assay type: ADME, organism-based; design: route oral; details: rat
CCRF-CEM = experiment: Antiviral activity in HIV-infected CEM cells using whole cell assay; assay type: functional, cell-based; details: Homo sapiens
[2] = target: Human immunodeficiency virus type 1 protease (Human immunodeficiency virus 1, UniProt Q72874); experiment: Inhibitory activity against human immunodeficiency virus protease (HIVP) using protease inhibition assay

SMILES | Cmax [1] | pIC50 (CCRF-CEM) | pIC50 [2]
Cc1ccc(C(=O)N(C)Cc2ccccn2)cc1C(=O)N[C@@H](Cc1ccccc1)[C@H](O)CN1C[C@H]2CCCC[C@H]2C[C@H]1C(=O)NC(C)(C)C | 4.4 µM | 7.11 | 8.07
CC(C)(C)NC(=O)c1ccccc1C[C@@H](O)[C@H](Cc1ccccc1)NC(=O)c1cccc(C(=O)N2CCc3ccccc3C2)c1 |  |  | 7.30
CC(C)(C)NC(=O)c1ccccc1C[C@@H](O)[C@H](Cc1ccccc1)NC(=O)[C@H](CC(N)=O)NC(=O)c1ccc2ccccc2n1 | < 0.1 µM | 7.57 | 
CC(C)(C)NC(=O)[C@@H]1C[C@@H]2CCCC[C@@H]2CN1C[C@@H](O)[C@H](Cc1ccccc1)NC(=O)[C@H](CC(N)=O)NC(=O)c1ccc2ccccc2n1 |  | 8.70 | 
Cc1cc(C(=O)N[C@@H](Cc2ccccc2)[C@H](O)Cc2ccccc2C(=O)NC(C)(C)C)cc(C(=O)N2CCc3ccccc3C2)c1 |  |  | 6.30
Cc1ccc(C(=O)N[C@@H](Cc2ccccc2)[C@H](O)Cc2ccccc2C(=O)NC(C)(C)C)cc1C(=O)N1CCc2ccccc2C1 |  |  | 6.17
Cc1ccc(C(=O)N2CCc3ccccc3C2)cc1C(=O)N[C@@H](Cc1ccccc1)[C@H](O)Cc1ccccc1C(=O)NC(C)(C)C |  |  | 8.21
Cc1ccc(C(=O)N2CCc3ccccc3C2)cc1C(=O)N[C@@H](Cc1ccccc1)[C@H](O)CN1C[C@H]2CCCC[C@H]2C[C@H]1C(=O)NC(C)(C)C | < 0.1 µM | 5.85 | 7.86
